Experimental data taken from patent publication US20020177180A1, “pH-indicator based assay for selective enzymes” (ThermoGen, Inc., priority 1998, published 2002).
Where two headings read alike, the source gives them in different places.

Key:
esterase E011 = assay: Initial screening of ThermoGen esterases toward esters 1-31 (pH indicator), specific activity; format: biochemical; details: 1 mM substrate, pH 7.2, 7 vol % acetonitrile, 25° C.
Description: (§1) Initial screening measures the initial rate of hydrolysis of different esters. The rate of reaction was measured by monitoring the release of protons using a pH indicator, 4-nitrophenol. In this assay, the yellow color of the phenoxide disappears as the reaction proceeds. The amount of ester hydrolyzed can be measured quantitatively, as is known in the art.

esterase E006 = assay: as above; format: biochemical; details: 1 mM substrate, pH 7.2, 7 vol % acetonitrile, 25° C.
Description: as §1
(§2) To survey the substrate selectivity of the ThermoGen esterases, the ability of the enzymes to hydrolyze thirty-one different commercially-available esters, Scheme 1 (FIG. 9, Table 6).

esterase E012 = assay: as above; format: biochemical; details: 1 mM substrate, pH 7.2, 7 vol % acetonitrile, 25° C.
Description: as §1, §2

esterase E014 = assay: as above; format: biochemical; details: 1 mM substrate, pH 7.2, 7 vol % acetonitrile, 25° C.
Description: as §1, §2

esterase E015 = assay: as above; format: biochemical; details: 1 mM substrate, pH 7.2, 7 vol % acetonitrile, 25° C.
Description: as §1, §2

esterase E016 = assay: as above; format: biochemical; details: 1 mM substrate, pH 7.2, 7 vol % acetonitrile, 25° C.
Description: as §1, §2

esterase E020 = assay: as above; format: biochemical; details: 1 mM substrate, pH 7.2, 7 vol % acetonitrile, 25° C.
Description: as §1, §2

ThermoGen esterases [1] = assay: Initial screening (pH indicator): esters as substrates of the ThermoGen esterases, statements for the esterases as a group; format: biochemical; details: for quality as substrate of the ThermoGen esterases (in words): esters 1-31, initial screening; for quality as substrate of the ThermoGen esterases (in words), enantiomer pairs: enantiomer pair library, Tables 8-12; for estimated enantioselectivities with ThermoGen esterases (in words): ratio of initial rates of enantiomer pairs
Description: as §1, §2
To evaluate the potential of the ThermoGen esterases for enantioselective reactions, the initial rates of hydrolysis of the esterases were measured using twenty-one pairs of enantiomers, Scheme 2, FIG. 10 and Tables 8-12. The ratio of these initial rates is an estimated enantioselectivity.

[2] = cited from earlier work; for pKa: reported value
ThermoGen esterases [3] = assay: True substrate selectivity measurements (competitive, resorufin ester), esters as substrates of the ThermoGen esterases; format: biochemical
Description: Esterase solution (5 μL in 5 mM BES) was added to each well and the microplate was placed in the microplate reader, shaken for 5 s and the decrease in absorbance at 404 nm and the increase in absorbance at 574 nm were measured as often as permitted by the microplate reader, typically every 11 s. Data was collected for 20 minutes, at 25° C., in triplicate and was averaged. Activities were calculated from the equations above using the linear, initial portions of the curve.
However, it is faster to measure selectivity of each substrate as it competes against a third substrate, which we call a reference compound. The ratio of the two competitive reactions is the true selectivity. […] Since some substrates react rapidly while others react slowly, we require both fast-reacting and slow-reacting reference compounds. In some cases we replaced resorufin acetate with the slower reacting resorufin pivaloate or resorufin isobutyrate as reference compounds.
The true selectivity of the ThermoGen esterases toward different acyl chain length was determined using a competitive experiment. Resorufin esters were used as the competitive substrate as explained above and normalized the results to hexanoate =100, Table 7. The true selectivities were similar to the estimated selectivities.

Description for physchem: The large difference in the extinction coefficients of the protonated and deprotonated forms (200 vs 18,000 M^−1 cm^−1 at 404 nm) gave good sensitivity. The extinction coefficients changed slightly upon addition of cosolvent and was determined experimentally.

| Structure (SMILES) | Specific activity, esterase E011 (esterase E011) | Specific activity, esterase E006 (esterase E006) | Specific activity, esterase E012 (esterase E012) | Specific activity, esterase E014 (esterase E014) | Specific activity, esterase E015 (esterase E015) | Specific activity, esterase E016 (esterase E016) | Specific activity, esterase E020 (esterase E020) | quality as substrate of the ThermoGen esterases (in words) (ThermoGen esterases [1]) | other results |
| --- | --- | --- | --- | --- | --- | --- | --- | --- | --- |
| CC(=O)Oc1ccccc1 [Substrate 26] | 270 mmol ester hydrolyzed/min/mg protein | 300 mmol ester hydrolyzed/min/mg protein | 30 mmol ester hydrolyzed/min/mg protein | 150 mmol ester hydrolyzed/min/mg protein | 320 mmol ester hydrolyzed/min/mg protein | 190 mmol ester hydrolyzed/min/mg protein | 390 mmol ester hydrolyzed/min/mg protein | best substrates |  |
| Cc1cc(O)c(C(C)C)cc1C1(c2cc(C(C)C)c(O)cc2C)OS(=O)(=O)c2ccccc21 [thymol blue] |  |  |  |  |  |  |  |  | pKa [2]: 9.2 |
| O=S1(=O)OC(c2ccc(O)c(Cl)c2)(c2ccc(O)c(Cl)c2)c2ccccc21 [chlorophenol red] |  |  |  |  |  |  |  |  | pKa [2]: 6.0 |
| O=c1ccc2nc3ccc(O)cc3oc-2c1 [resorufin alcohol, resorufin] |  |  |  |  |  |  |  |  | pKa (physchem): 8.15 |
| O=[N+]([O-])c1ccc(O)cc1 [4-nitrophenol] |  |  |  |  |  |  |  |  | pKa upon addition of 10% ethanol ([2]; previously shown): 7.17; pKa [2]: 7.2 |
| CCOC(=O)CN.Cl [Substrate 31] | 0.1 mmol ester hydrolyzed/min/mg protein | <0.1 mmol ester hydrolyzed/min/mg protein | 6.0 mmol ester hydrolyzed/min/mg protein | <0.1 mmol ester hydrolyzed/min/mg protein | <0.1 mmol ester hydrolyzed/min/mg protein | 13 mmol ester hydrolyzed/min/mg protein | 1.4 mmol ester hydrolyzed/min/mg protein | usually poor substrates |  |
| C=COC(=O)C(C)(C)C [Substrate 11] | 0.80 mmol ester hydrolyzed/min/mg protein | 0.52 mmol ester hydrolyzed/min/mg protein | 16 mmol ester hydrolyzed/min/mg protein | 0.40 mmol ester hydrolyzed/min/mg protein | 4.0 mmol ester hydrolyzed/min/mg protein | 20 mmol ester hydrolyzed/min/mg protein | 1.2 mmol ester hydrolyzed/min/mg protein | poor substrate for all the esterases |  |
| CCCC(=O)OCC [Substrate 13] | 0.71 mmol ester hydrolyzed/min/mg protein | 1.1 mmol ester hydrolyzed/min/mg protein | <2 mmol ester hydrolyzed/min/mg protein | 0.40 mmol ester hydrolyzed/min/mg protein | 2.0 mmol ester hydrolyzed/min/mg protein | 3.5 mmol ester hydrolyzed/min/mg protein | 3.0 mmol ester hydrolyzed/min/mg protein | reacted much slower |  |
| O=S(=O)(O)CCN1CCOCC1 [MES, 2-[N-morpholino]ethanesulfonic acid] |  |  |  |  |  |  |  |  | pKa [2]: 6.1 |
| COC(=O)CO [Substrate 20] | <0.1 mmol ester hydrolyzed/min/mg protein | 0.11 mmol ester hydrolyzed/min/mg protein | <2 mmol ester hydrolyzed/min/mg protein | <0.1 mmol ester hydrolyzed/min/mg protein | <0.1 mmol ester hydrolyzed/min/mg protein | <2 mmol ester hydrolyzed/min/mg protein | <0.2 mmol ester hydrolyzed/min/mg protein | usually poor substrates |  |
| O=S(=O)(O)CCCN1CCN(CCO)CC1 [EPPS, N-[2-hydroxylethyl]piperazine-N′-[3-propanesulfonic acid]] |  |  |  |  |  |  |  |  | pKa [2]: 8.0 |
| CC(C)(C)CC(=O)Oc1ccc2nc3ccc(=O)cc-3oc2c1 [Substrate 10, Resorufin t-butylacetate (resorufin 3,3-dimethylbutyrate), reference compound] | 2.7 mmol ester hydrolyzed/min/mg protein | 5.7 mmol ester hydrolyzed/min/mg protein | 22 mmol ester hydrolyzed/min/mg protein | 1.0 mmol ester hydrolyzed/min/mg protein | 5.9 mmol ester hydrolyzed/min/mg protein | 50 mmol ester hydrolyzed/min/mg protein | 14 mmol ester hydrolyzed/min/mg protein | good substrate for several esterases |  |
| CCOC(=O)C(F)(F)F [Substrate 17] | 2.7 mmol ester hydrolyzed/min/mg protein | 1.7 mmol ester hydrolyzed/min/mg protein | 1200 mmol ester hydrolyzed/min/mg protein | 1.4 mmol ester hydrolyzed/min/mg protein | 190 mmol ester hydrolyzed/min/mg protein | 1500 mmol ester hydrolyzed/min/mg protein | 0.35 mmol ester hydrolyzed/min/mg protein | best substrates |  |
| C=COC(=O)C(C)(C)C [Substrate 11, vinyl pivaloate] |  |  |  |  |  |  |  |  | quality as substrate in true selectivity measurements (in words) (ThermoGen esterases [3]): poor substrates |
| COC(=O)C(C)N (single isomer, unassigned) [Substrate 47] |  |  |  |  |  |  |  |  | quality as substrate of the ThermoGen esterases (in words), enantiomer pairs (ThermoGen esterases [1]): poorest substrates; estimated enantioselectivities with ThermoGen esterases (in words) (ThermoGen esterases [1]): estimated enantioselectivities above two with several esterases |
| COC(=O)C(O)c1ccccc1 (stereo not drawn) [Substrate 21] | 0.04 mmol ester hydrolyzed/min/mg protein | <0.1 mmol ester hydrolyzed/min/mg protein | <2 mmol ester hydrolyzed/min/mg protein | <0.1 mmol ester hydrolyzed/min/mg protein | <0.1 mmol ester hydrolyzed/min/mg protein | <2 mmol ester hydrolyzed/min/mg protein | <0.2 mmol ester hydrolyzed/min/mg protein | usually poor substrates |  |
| C=COC(=O)c1ccccc1 [Substrate 10, vinyl benzoate] |  |  |  |  |  |  |  |  | quality as substrate in true selectivity measurements (in words) (ThermoGen esterases [3]): poor substrates |
| O=C1CCC(CO)O1 (single isomer, unassigned) [Substrate 51] |  |  |  |  |  |  |  |  | quality as substrate of the ThermoGen esterases (in words), enantiomer pairs (ThermoGen esterases [1]): poorest substrates |
| CCCC(=O)OCC1COC(C)(C)O1 (single isomer, unassigned) [Substrate 32] |  |  |  |  |  |  |  |  | quality as substrate of the ThermoGen esterases (in words), enantiomer pairs (ThermoGen esterases [1]): best substrates |
| COC(=O)C(N)Cc1c[nH]c2ccccc12 (single isomer, unassigned) [Substrate 50] |  |  |  |  |  |  |  |  | estimated enantioselectivities with ThermoGen esterases (in words) (ThermoGen esterases [1]): estimated enantioselectivities above two with several esterases |
